This is an account of results in patent US20180000737A1, “INJECTABLE AGGREGATES FOR JOINT AND SOFT TISSUE DISTRESS” (VISGO THERAPEUTICS, INC., priority 2015, published 2018).

The conditions of this data set: sheep, in vivo, 7 days. The text has this:
In another embodiment, the present disclosure provides a composition that achieves both immediate and extended release of an active pharmaceutical ingredient (API) upon administration to a subject, the composition comprising chitosan particles and API, the release occurring through at least one of diffusion of API from the particles and breakdown of the particles to release entrapped API. In additional embodiments, the present disclosure provides a composition that achieves both immediate and extended release of an API which is characterized by any one or more of the following exemplary features: the chitosan particles comprise crosslinked chitosan; the API is an NSAID; the API is diclofenac which optionally may be in whole or in part in crystalline form; the immediate release occurs over a period of 12 hours from the administration, and releases from 5 to 70% of API from the particles; the extended release occurs over a period of 0.5 to 7 days from administration, and releases 5 to 70% of the API from the particles; the particles are taken up by the synovium after administration to the subject. […] Accordingly, the incorporation of API into a crosslinked chitosan particle as disclosed herein may provide an extended release of API into the synovial fluid.

As to `O=C(O)Cc1ccccc1Nc1c(Cl)cccc1Cl` [diclofenac, 2-(2-(2,6-dichlorophenylamino)phenyl)acetic acid], the “synovial fluid concentration of diclofenac” value is “about 0.05 mg/mL”.
